Molecular target: T1, α4β7 integrin interaction with MadCAM-1 (RPMI8866 cells) (Homo sapiens, UniProt P13612+P26010)
T1 construct: α4β7 integrin expressing cells; endogenous in cells; host or cells: RPMI8866 cells
T1 sequence (P13612 34-1032): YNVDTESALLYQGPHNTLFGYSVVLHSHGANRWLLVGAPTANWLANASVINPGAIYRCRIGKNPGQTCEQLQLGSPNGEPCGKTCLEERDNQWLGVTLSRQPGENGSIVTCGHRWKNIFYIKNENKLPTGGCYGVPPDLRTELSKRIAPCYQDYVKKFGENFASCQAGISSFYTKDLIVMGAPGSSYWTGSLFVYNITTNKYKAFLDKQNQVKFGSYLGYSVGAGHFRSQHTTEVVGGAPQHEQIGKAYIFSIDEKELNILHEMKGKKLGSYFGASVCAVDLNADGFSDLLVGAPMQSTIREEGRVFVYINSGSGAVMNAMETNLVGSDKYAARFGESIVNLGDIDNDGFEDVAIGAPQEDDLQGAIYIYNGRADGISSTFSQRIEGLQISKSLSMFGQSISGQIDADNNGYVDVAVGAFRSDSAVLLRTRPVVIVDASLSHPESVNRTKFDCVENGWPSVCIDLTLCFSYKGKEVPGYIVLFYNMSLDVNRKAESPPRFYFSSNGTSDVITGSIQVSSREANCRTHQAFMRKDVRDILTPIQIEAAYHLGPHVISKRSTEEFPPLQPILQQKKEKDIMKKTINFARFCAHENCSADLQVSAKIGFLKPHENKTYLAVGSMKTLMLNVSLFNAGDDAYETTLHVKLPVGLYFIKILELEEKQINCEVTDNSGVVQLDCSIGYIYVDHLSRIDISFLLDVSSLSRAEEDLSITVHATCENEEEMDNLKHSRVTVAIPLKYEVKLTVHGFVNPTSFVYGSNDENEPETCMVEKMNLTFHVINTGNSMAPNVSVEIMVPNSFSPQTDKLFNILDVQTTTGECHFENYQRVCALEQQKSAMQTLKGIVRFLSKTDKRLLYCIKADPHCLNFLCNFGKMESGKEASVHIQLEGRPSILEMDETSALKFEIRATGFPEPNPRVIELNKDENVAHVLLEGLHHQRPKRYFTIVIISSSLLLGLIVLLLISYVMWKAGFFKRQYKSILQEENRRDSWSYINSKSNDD
T1 sequence (P26010 20-798): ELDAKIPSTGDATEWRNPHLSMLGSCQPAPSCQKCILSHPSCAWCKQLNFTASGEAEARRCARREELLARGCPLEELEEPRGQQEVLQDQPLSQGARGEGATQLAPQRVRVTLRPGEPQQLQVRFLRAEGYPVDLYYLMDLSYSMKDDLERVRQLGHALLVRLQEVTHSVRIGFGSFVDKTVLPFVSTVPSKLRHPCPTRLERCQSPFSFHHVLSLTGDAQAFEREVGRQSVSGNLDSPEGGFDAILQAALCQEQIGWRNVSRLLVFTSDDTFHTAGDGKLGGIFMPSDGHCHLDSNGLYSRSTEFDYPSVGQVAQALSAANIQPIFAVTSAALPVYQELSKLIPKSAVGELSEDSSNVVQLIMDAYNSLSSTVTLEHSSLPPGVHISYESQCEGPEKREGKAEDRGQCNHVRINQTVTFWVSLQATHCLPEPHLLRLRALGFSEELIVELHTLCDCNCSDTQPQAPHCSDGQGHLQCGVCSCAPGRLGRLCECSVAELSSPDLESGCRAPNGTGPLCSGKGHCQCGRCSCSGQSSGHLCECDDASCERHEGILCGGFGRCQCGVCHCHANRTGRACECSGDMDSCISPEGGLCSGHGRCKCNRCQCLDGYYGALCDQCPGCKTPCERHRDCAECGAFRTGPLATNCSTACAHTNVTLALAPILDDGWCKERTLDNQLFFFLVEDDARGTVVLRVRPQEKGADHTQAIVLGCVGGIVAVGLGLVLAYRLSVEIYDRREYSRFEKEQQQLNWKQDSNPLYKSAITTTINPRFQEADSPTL
Experiment: α4β7 Integrin Cell Capture Assay
Format: cell-based
Settings: capture of α4β7 integrin expressing RPMI8866 cells on recombinant MadCAM-1 extracellular domain-coated plate; 0.5 mM MnCl2
Method: The potency of inhibitors in preventing α4β7 integrin interaction with MadCAM-1 was measured by monitoring the capture of α4β7 integrin expressing cells on a recombinant MadCAM-1 extracellular domain-coated plate. 384-well plates (Corning 3702) were coated with MadCAM-1 extracellular domain by dispensing 20 μL of MAdCAM-1 at 1.0 μg/mL per well and incubating overnight at 4° C. The plates were then washed with PBS and blocked with 3% BSA for 2 hours before being washed again. RPMI8866 cells were spun down and re-suspended in assay medium (DMEM+0.5% FBS+0.5 mM MnCl2) at a density of 0.5×10^6 cells/mL. The cells were then dispensed (60 μL/well) to a 384-well plate (Greiner 781280) that was previously spotted with 60 nL of test compound per well. The plates were incubated at 37° C. for 1 hour. 50 μL of cells were transferred to the blocked, MadCAM-1-coated plates and incubated for 30 minutes at 37° C. 10 μL of 12% glutaraldehyde containing Hoechst 33342 (0.06 mg/mL) was added to the cells (2% glutaraldehyde and 0.01 mg/mL final concentrations). The plates were incubated for 90 minutes at room temperature. The plates were then washed 3 times with 70 μL of PBS per well and imaged on a Cellomics ArrayScan instrument. The cells that were bound to the plate were counted and plotted against the compound concentration to determine the EC50 of the test compounds.

First: Cc1c(-c2ccc(C[C@H](NC(=O)c3c(F)cc(N4CCOC[C@@H]4C(F)(F)F)cc3F)C(=O)O)c3c2OCCC3)c(=O)n(C)c2ccc(F)cc12 [Example 34, (S)-2-(2,6-difluoro-4-((R)-3-(trifluoromethyl)morpholino)benzamido)-3-(8-(6-fluoro-1,4-dimethyl-2-oxo-1,2-dihydroquinolin-3-yl)chroman-5-yl)propanoic acid]
Second: Cc1cc(C(F)(F)F)c(-c2ccc(C[C@H](NC(=O)c3c(F)cc(N4CCOC[C@@H]4C(F)(F)F)cc3F)C(=O)O)c3c2OCCC3)c(=O)n1C (single isomer, unassigned) [Example 39]
The EC50 of the first is 1.9-fold higher: 0.236 nM for the first, 0.126 nM for the second.

First: Cc1cc(N2CCOC[C@@H]2C(F)(F)F)cc(F)c1C(=O)N[C@@H](Cc1ccc(-c2c(C)ncn(C)c2=O)c2c1CCCO2)C(=O)O [Example 134]
Second: Cc1cc(N2CCOC[C@@H]2C(F)(F)F)cc(F)c1C(=O)N[C@@H](Cc1ccc(-c2c(C)nc(C)n(C)c2=O)c2c1CCCO2)C(=O)O (atropisomer, axis not shown) [Example 120]
The EC50 of the first is 4.2-fold higher: 0.374 nM for the first, 0.089 nM for the second. The second is the more potent here.

Going from `CC[C@@H](Nc1cc(F)c(C(=O)N[C@@H](Cc2ccc(-c3c(C)n(C)c(=O)n(C)c3=O)c3c2CCCO3)C(=O)O)c(F)c1)C(F)(F)F` [Example 54, (S)-2-(2,6-difluoro-4-(((R)-1,1,1-trifluorobutan-2-yl)amino)benzamido)-3-(8-(1,3,6-trimethyl-2,4-dioxo-1,2,3,4-tetrahydropyrimidin-5-yl)chroman-5-yl)propanoic acid] to `CC[C@@H](Nc1cc(F)c(C(=O)N[C@@H](Cc2ccc(-c3c(C(F)(F)F)cc(C)n(C)c3=O)c3c2CCCO3)C(=O)O)c(F)c1)C(F)(F)F` (single isomer, unassigned) [Example 44], the EC50 falls from 0.607 nM to 0.29 nM (2.1-fold).

`Cc1nc(-c2ccc(C[C@H](NC(=O)c3c(F)cc(N4CCO[C@@H](C)C4)cc3F)C(=O)O)c3c2OCCC3)c(=O)n(C)c1C` [Example 157] and `Cc1cc(N2CCOC3(CC3)C2)cc(F)c1C(=O)N[C@@H](Cc1ccc(-c2nc(C)c(C)n(C)c2=O)c2c1CCCO2)C(=O)O` [Example 139] are within 1.5-fold of each other in EC50: 1.82 nM for the first, 2 nM for the second.

`O=C(N[C@@H](Cc1ccc(-c2c(Cl)cc(F)cc2Cl)c2c1CCCO2)C(=O)O)c1c(F)cccc1F` [Example 74, (S)-3-(8-(2,6-dichloro-4-fluorophenyl)chroman-5-yl)-2-(2,6-difluorobenzamido)propanoic acid] and `O=C(N[C@@H](Cc1ccc(-c2c(Cl)cc(F)cc2Cl)c2c1CCC2)C(=O)O)c1c(F)cccc1F` [Example 104, (S)-3-(7-(2,6-dichloro-4-fluorophenyl)-2,3-dihydro-1H-inden-4-yl)-2-(2,6-difluorobenzamido)propanoic acid] are within 1.5-fold of each other in EC50: 79.7 nM for the first, 88.7 nM for the second.

Going from `COc1cc(C#Cc2ccc(OC(F)(F)F)cc2)cc(OC)c1-c1ccc(C[C@H](NC(=O)c2c(Cl)cccc2Cl)C(=O)O)c2c1OCCC2` [Example 93, (S)-2-(2,6-dichlorobenzamido)-3-(8-(2,6-dimethoxy-4-((4-(trifluoromethoxy)phenyl)ethynyl)phenyl)chroman-5-yl)propanoic acid] to `O=C(N[C@@H](Cc1ccc(-c2c(Cl)cc(F)cc2Cl)c2c1CCCO2)C(=O)O)c1c(Cl)cccc1Cl` [Example 75, (S)-3-(8-(2,6-dichloro-4-fluorophenyl)chroman-5-yl)-2-(2,6-dichlorobenzamido)propanoic acid], the EC50 falls from 491 nM to 67.7 nM (7.3-fold).

`Cc1cc(C(F)(F)F)c(-c2ccc(C[C@H](NC(=O)c3c(F)cc(N4CCOC[C@@H]4C(F)(F)F)cc3F)C(=O)O)c3c2COC3)c(=O)n1C` [Example 19, (S)-2-(2,6-difluoro-4-((R)-3-(trifluoromethyl)morpholino)benzamido)-3-(7-(1,6-dimethyl-2-oxo-4-(trifluoromethyl)-1,2-dihydropyridin-3-yl)-1,3-dihydroisobenzofuran-4-yl)propanoic acid] and `Cc1nc(C)n(C)c(=O)c1-c1ccc(C[C@H](NC(=O)c2c(F)cc(N3CCOC[C@@H]3C(F)(F)F)cc2F)C(=O)O)c2c1COC2` [Example 185] are within 1.5-fold of each other in EC50: 0.193 nM for the first, 0.282 nM for the second.

Going from `COc1cccc(OC)c1-c1ccc(CC(NC(=O)c2c(F)cc(NS(=O)(=O)c3ccc(-n4cncn4)cc3)cc2F)C(=O)O)c2c1CN(C(C)=O)CC2` (stereo not drawn) [Example 107] to `Cc1c(-c2ccc(C[C@H](NC(=O)c3c(F)cccc3F)C(=O)O)c3c2CCC3)c(=O)n(C)c2ccc(F)cc12` [Example 105, (S)-2-(2,6-difluorobenzamido)-3-(7-(6-fluoro-1,4-dimethyl-2-oxo-1,2-dihydroquinolin-3-yl)-2,3-dihydro-1H-inden-4-yl)propanoic acid], the EC50 rises from 0.812 nM to 2.44 nM (3-fold).

`O=C(N[C@@H](Cc1ccc(-c2c(Cl)cc(F)cc2Cl)c2c1OCCO2)C(=O)O)c1c(F)cccc1F` [Example 4, (S)-3-(8-(2,6-dichloro-4-fluorophenyl)-2,3-dihydrobenzo[b][1,4]dioxin-5-yl)-2-(2,6-difluorobenzamido)propanoic acid] and `O=C(N[C@@H](Cc1ccc(-c2ncc3ccccc3c2Br)c2c1CCCO2)C(=O)O)c1c(F)cccc1F` [Example 65, (S)-3-(8-(4-bromoisoquinolin-3-yl)chroman-5-yl)-2-(2,6-difluorobenzamido)propanoic acid] are within 1.5-fold of each other in EC50: 26.3 nM for the first, 19.6 nM for the second.

First: Cn1c(=O)c(-c2ccc(C[C@H](NC(=O)c3c(Cl)cccc3Cl)C(=O)O)c3c2OC(C)(C)C3)cc2ccccc21 [Example 38, (S)-2-(2,6-dichlorobenzamido)-3-(2,2-dimethyl-7-(1-methyl-2-oxo-1,2-dihydroquinolin-3-yl)-2,3-dihydrobenzofuran-4-yl)propanoic acid]
Second: Cc1cc(N2CCOC[C@@H]2C(F)(F)F)cc(F)c1C(=O)N[C@@H](Cc1ccc(-c2c(Cl)cc(C)n(C)c2=O)c2c1CCCO2)C(=O)O (atropisomer, axis not shown) [Example 137]
The EC50 of the first is 230-fold higher: 20.6 nM for the first, 0.089 nM for the second. The second is the more potent here.

Going from `Cn1c(=O)n(-c2ccc(C[C@H](NC(=O)c3c(F)cc(N4CCOC[C@@H]4C(F)(F)F)cc3F)C(=O)O)c3c2OCCC3)c(=O)c2ccncc21` [Example 124] to `Cc1cc(N2CCC2)c(-c2ccc(C[C@H](NC(=O)c3c(F)cc(N4CCOC[C@@H]4C(F)(F)F)cc3F)C(=O)O)c3c2OCCC3)c(=O)n1C` [Example 167], the EC50 rises from 0.065 nM to 0.521 nM (8-fold).

`Cc1cc(N2CCOC[C@@H]2C(F)(F)F)cc(F)c1C(=O)N[C@@H](Cc1ccc(-c2cnc(C)n(C)c2=O)c2c1OCCO2)C(=O)O` [Example 178] and `Cc1cc(N2CCOC[C@@H]2C(F)(F)F)cc(F)c1C(=O)N[C@@H](Cc1ccc(-c2c(C)c(C(F)(F)F)cn(C)c2=O)c2c1CCCO2)C(=O)O` [Example 146] are within 1.5-fold of each other in EC50: 0.348 nM for the first, 0.416 nM for the second.

— patent US20220226337A1 (Gilead Sciences, Inc., priority 2018, published 2022)
